Measured values published in publication PMC4721545 (Bioscience Reports, 2015).
Like-named read-outs stand apart in the source and are kept apart here.

What was measured:
[1] = tested on: iNOS and Arg-1 expression in brain; assay: Western blot of iNOS and Arg-1 in brain of EAE mice (M1/M2 polarization); assay type: in vivo, mouse; conditions: day 28 p.i.
Description: (§1) Mice were divided into three groups: Fasudil-treated group (n=8), FSD-C10-treated group (n=8) and double-distilled water (ddH2O) EAE control group (n=9). […] Mice were i.p. injected with 800 μg/200 μl/daily from day 3 to day 27 p.i. Mice that received the same volume of ddH2O i.p. served as control. Protein from brains was homogenized on ice with an extraction kit and protein concentration was determined by a Bradford protein assay. Protein extracts (30 μg) were separated by SDS/PAGE and transferred on to a PVDF membrane (Immobilon-P; Millipore Corp.). The membranes were then incubated with anti-GDNF (glial cell line-derived neurotrophic factor; 1:1000, Epitomics), anti-BDNF (brain-derived neurotrophic factor; 1:1000, Promega), anti-NT-3(neurotrophin-3; 1:1000, Epitomics), anti-Nogo(1:1000, Epitomics), anti-iNOS (inducible nitric oxide synthase) (1:1000, Cell Signaling Technology) […], anti-arginase-1 ([…]) (1:1000, BD Bioscience) and anti-β-actin (1:10000, Cell Signaling Technology) for overnight at 4°C. Bands were visualized by horseradish peroxidase (HRP-) conjugated secondary antibodies and ECL kit under ECL system (GE Healthcare Life Sciences).

[2] = tested on: BDNF, GDNF, NT-3, Nogo protein in brain; assay: Western blot of neurotrophic factors and Nogo in brain of EAE mice; assay type: in vivo, mouse; conditions: day 28 p.i., vs control EAE mice; for expression of BDNF protein in brain / expression of GDNF protein in brain / expression of NT-3 protein in brain: P<0.05
Description: as §1

C57BL/6 mice = assay: Test of vasodilation in naive mice; assay type: in vivo; conditions: healthy mice, 800 μg/mouse i.p., after 30 and 60 min
EAE in C57BL/6 mice [3] = assay: Chronic EAE induced with MOG35-55, clinical score and body weight; assay type: in vivo, mouse; conditions: 800 μg/200 μl daily i.p., day 3 to 27 p.i.; for mean clinical score: EAE control 1.29±1.08, P<0.001; for maximum clinical score: EAE control 2.78; for body weight loss vs EAE mice: P<0.001
Description: Female C57BL/6 mice (8–10 weeks old and 18–20 g of body weight) were purchased from Vital River Laboratory Animal Technology Co. Ltd. All experiments were conducted in accordance with the guidelines of the International Council for Laboratory Animal Science. The study was approved by the Ethics Committee of Shanxi Datong University. […].
Mouse myelin oligodendrocyte glycoprotein peptide 35–55 (MOG35–55, MEVGW […]) was produced in an automatic synthesizer (CL. Bio-Scientific Company). The purity of the peptide was >95% as determined by HPLC. Chronic EAE was induced by subcutaneous immunization on the upper dorsal flanks with 300 μg of MOG35–55 in Freund's complete adjuvant (Sigma) supplemented with 3 mg/ml of M. Tuberculosis H37Ra (BD Difco; […]). Mice were injected intraperitoneally (i.p.) with 500 ng of pertussis toxin (Enzo Life Sciences) on days 0 and 2 post-immunization (p.i.). Animals were weighed and evaluated for clinical score every other day in a blinded fashion by at least two investigators. Clinical score of EAE was graded according to the following criteria: 0: healthy; 1: limp tail; 2: ataxia and/or paresis of hind limbs; 3: paralysis of hind limbs and/or paresis of forelimbs; 4: tetraparalysis; and 5: moribund or death. When the clinical score of EAE reaches 3, we give suitable care including softening of food with water in dish and additional nutrients such as egg, making mice easy to obtain food and nutrition.
Mice were divided into three groups: Fasudil-treated group (n=8), FSD-C10-treated group (n=8) and double-distilled water (ddH2O) EAE control group (n=9). […] Mice were i.p. injected with 800 μg/200 μl/daily from day 3 to day 27 p.i. Mice that received the same volume of ddH2O i.p. served as control.

primary neurons [4] = assay: MTT cell viability assay, primary neurons; assay type: cell-based, mouse; conditions: 24 h
Description: (§2) Embryonic 18-day-mouse cortex (Shanghai SLAC Laboratory Animal Co. Ltd) were dissected under a microscope and then triturated into the suspension in Neurobasal-A-medium (Gibco) supplemented with 2% B27 (Gibco), 100 units/ml penicillin and 100 μg/ml streptomycin (Gibco). The cells were then plated on cover slips coated with poly-D-lysine (0.1 mg/ml; Sigma) at a density of 1×10^6 cells per cm^2 at 37°C in a humidified cell incubator under a 95%/5% (v/v) mixture of air and CO2, with the cell media being replaced every 48 h. After 7 days, neurons were incubated with different conditioned medium.
(§3) Cell viability of BV-2 microglia and primary neurons was detected by MTT assay. In brief, 100 μl of MTT solution (0.5 mg ml^−1, Duchefa) was added to cultured cells and incubated for an additional 4 h at 37°C, until the medium turned purple. Absorbance at 570 nm was measured by a microplate reader after addition of 100 μl DMSO. Each experiment was performed in triplicate and repeated three times with separate cell preparations. Results were expressed as a percentage of the control value at 570 nm.

primary neurons [5] = assay: LDH release cell death assay, primary neurons; assay type: cell-based; conditions: 24 h
Description: as §2
(§4) The death of BV-2 microglia and primary neurons was measured by LDH release in the culture medium. Levels of LDH release in supernatants of cultured cells were measured using the cytotoxicity detection kit (Promega) according to the manufacturer's protocol. Maximum LDH release (A570) was determined following the treatment of cells with lysis buffer and considered as control value (100% LDH release). Data were expressed as a percentage of the control value.

ROCK I = target: T1, ROCK I (Homo sapiens, UniProt Q13464); assay: ROCK inhibition by mobility shift assay, ROCK I; assay type: biochemical; conditions: ATP con. 3.6 μM
T1 construct: purchased Carna
Description: (§5) Staurosporine (Sigma) was used as positive control and saline was used as negative control.
(§6) DMSO (100 μl) was added to two empty wells for no compound control and no enzyme control in the same 96-well plate. Mobility shift assay was performed according to the manufacturer's protocol. […] The mixtures (5 μl) were incubated with 2.5× enzyme solution (10 μl) in 384-well plate at room temperature for 10 min and control was performed by adding 5 μl of kinase buffer.
(§7) Percentinhibition=max−conversion/max−min×100
(§8) where max stands for DMSO control; min stands for low control.

BV-2 microglia [6] = assay: MTT cell viability assay, BV-2 microglia; assay type: cell-based; conditions: 24 h
Description: (§9) The BV-2 immortalized microglial cell line was purchased from ShenKe Biological Technology Co. and cultured in Dulbecco's modified Eagle's medium (DMEM; Gibco), supplemented with 10% FBS (Gibco), 100 units/ml penicillin and 100 μg/ml streptomycin (Gibco) at 37°C in a humidified cell incubator under a 95%/5% (v/v) mixture of air and CO2. Cells were plated on a 96-well plate at a density of 1.0×10^6 /ml (200 μl/well), on a 24-well plate at 1.0×10^6/ml (500 μl/well) and at 0.2×10^6 /ml (500 μl/well) for different experiments.
as §3

EAE in C57BL/6 mice [7] = tested on: EAE in C57BL/6 mice; parameters: method as in PMID 24749492; conditions: previous studies; cited from earlier work
ROCK II = target: T2, ROCK II (Homo sapiens, UniProt O75116); assay: ROCK inhibition by mobility shift assay, ROCK II; assay type: biochemical; conditions: ATP con. 5.3 μM
T2 construct: purchased Carna
Description: as §5, §6, §7, §8

BV-2 microglia [8] = assay: LDH release cell death assay and morphology, BV-2 microglia; assay type: cell-based; conditions: for BV-2 microglia cell death / morphology: 75 μg/ml and 200 μg/ml, 48 h culture; for death of BV-2 microglia (LDH release): 24 h
Description: as §9, §4

BV-2 microglia [9] = assay: Dendritic formation of BV-2 microglia (Image J); assay type: cell-based; conditions: for breakage of dendritic branches on BV-2 microglia: 75 and 200 μg/ml; for dendritic length of BV-2 microglia (mean): PBS control 2.94 μm, P<0.001
Description: as §9
(§10) Fluorescent photomicrographs of neurons with microtubule-associated protein-2 (MAP-2) staining or photomicrographs of BV-2 cells under inverted microscope were captured with a 20× objective and a digital camera of Olympus microscope. Images were acquired from randomly selected fields for each group. The length of the longest neurite outgrown or dendritic formation in the cell body was measured by an investigator blinded to the experimental groups using a public-domain image-processing program (Image J, http://rsb.info.nih.gov/ij). Average lengths of neuronal neurite or dendritic formation were used for quantification.

primary neurons [10] = assay: Neurite outgrowth of primary neurons (MAP-2 staining, Image J); assay type: cell-based, mouse; conditions: PBS control 4.1 μm; P<0.01
Description: as §2, §10

mice = assay type: in vivo; conditions: within 2 h
Description: […]. […] Given that FSD-C10 was well tolerant in vivo, further pre-clinical studies are valuable for the treatment of MS.
[…]. […] TEXT PRINTED IN THE PICTURE: (b) Fasudi: Mortality (%): 0% (800 μg /mouse/day); Mortality (%): 33% (1600 μg /mouse/day); Mortality (%): 67% (2000 μg /mouse/day) | (b) FSD-C10: Mortality (%): 0% (800 μg /mouse/day); Mortality (%): 0% (1600 μg /mouse/day); Mortality (%): 0% (2000 μg /mouse/day)

T1 sequence (Q13464 whole entry): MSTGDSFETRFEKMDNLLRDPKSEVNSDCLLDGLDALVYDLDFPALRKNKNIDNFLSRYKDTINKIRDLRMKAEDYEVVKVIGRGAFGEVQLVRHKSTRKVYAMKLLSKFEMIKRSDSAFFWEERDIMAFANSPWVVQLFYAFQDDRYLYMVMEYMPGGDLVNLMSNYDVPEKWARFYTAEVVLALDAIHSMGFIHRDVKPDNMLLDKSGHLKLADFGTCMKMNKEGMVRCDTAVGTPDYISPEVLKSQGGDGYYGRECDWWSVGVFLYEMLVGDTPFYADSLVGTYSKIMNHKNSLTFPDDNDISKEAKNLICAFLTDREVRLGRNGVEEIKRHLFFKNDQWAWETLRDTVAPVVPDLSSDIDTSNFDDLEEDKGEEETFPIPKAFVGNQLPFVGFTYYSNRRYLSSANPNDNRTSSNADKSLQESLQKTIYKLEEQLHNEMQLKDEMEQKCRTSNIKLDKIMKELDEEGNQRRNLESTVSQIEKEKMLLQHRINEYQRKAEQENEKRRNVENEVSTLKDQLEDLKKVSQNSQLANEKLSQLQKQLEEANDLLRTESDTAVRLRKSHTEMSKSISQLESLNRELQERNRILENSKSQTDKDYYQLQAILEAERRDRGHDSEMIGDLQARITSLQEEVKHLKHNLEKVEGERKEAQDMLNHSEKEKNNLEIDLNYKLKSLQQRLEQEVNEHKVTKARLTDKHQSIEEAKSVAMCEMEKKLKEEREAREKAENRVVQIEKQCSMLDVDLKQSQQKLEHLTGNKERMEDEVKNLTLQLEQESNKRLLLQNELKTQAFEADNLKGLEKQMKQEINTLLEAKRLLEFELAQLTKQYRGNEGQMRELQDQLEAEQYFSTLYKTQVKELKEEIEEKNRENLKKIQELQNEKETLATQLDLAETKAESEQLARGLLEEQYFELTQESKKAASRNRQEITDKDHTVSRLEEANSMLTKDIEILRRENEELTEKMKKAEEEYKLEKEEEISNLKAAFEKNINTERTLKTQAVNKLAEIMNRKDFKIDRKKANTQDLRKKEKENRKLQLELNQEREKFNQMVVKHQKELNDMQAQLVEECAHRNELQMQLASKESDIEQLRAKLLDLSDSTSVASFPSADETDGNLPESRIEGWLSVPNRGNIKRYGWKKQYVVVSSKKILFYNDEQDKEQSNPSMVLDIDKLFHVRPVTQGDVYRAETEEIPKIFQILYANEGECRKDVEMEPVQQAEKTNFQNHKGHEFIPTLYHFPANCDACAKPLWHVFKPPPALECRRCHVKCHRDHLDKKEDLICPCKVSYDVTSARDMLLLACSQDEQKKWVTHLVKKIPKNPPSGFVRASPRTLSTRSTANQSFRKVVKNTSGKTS
T2 sequence (O75116 whole entry): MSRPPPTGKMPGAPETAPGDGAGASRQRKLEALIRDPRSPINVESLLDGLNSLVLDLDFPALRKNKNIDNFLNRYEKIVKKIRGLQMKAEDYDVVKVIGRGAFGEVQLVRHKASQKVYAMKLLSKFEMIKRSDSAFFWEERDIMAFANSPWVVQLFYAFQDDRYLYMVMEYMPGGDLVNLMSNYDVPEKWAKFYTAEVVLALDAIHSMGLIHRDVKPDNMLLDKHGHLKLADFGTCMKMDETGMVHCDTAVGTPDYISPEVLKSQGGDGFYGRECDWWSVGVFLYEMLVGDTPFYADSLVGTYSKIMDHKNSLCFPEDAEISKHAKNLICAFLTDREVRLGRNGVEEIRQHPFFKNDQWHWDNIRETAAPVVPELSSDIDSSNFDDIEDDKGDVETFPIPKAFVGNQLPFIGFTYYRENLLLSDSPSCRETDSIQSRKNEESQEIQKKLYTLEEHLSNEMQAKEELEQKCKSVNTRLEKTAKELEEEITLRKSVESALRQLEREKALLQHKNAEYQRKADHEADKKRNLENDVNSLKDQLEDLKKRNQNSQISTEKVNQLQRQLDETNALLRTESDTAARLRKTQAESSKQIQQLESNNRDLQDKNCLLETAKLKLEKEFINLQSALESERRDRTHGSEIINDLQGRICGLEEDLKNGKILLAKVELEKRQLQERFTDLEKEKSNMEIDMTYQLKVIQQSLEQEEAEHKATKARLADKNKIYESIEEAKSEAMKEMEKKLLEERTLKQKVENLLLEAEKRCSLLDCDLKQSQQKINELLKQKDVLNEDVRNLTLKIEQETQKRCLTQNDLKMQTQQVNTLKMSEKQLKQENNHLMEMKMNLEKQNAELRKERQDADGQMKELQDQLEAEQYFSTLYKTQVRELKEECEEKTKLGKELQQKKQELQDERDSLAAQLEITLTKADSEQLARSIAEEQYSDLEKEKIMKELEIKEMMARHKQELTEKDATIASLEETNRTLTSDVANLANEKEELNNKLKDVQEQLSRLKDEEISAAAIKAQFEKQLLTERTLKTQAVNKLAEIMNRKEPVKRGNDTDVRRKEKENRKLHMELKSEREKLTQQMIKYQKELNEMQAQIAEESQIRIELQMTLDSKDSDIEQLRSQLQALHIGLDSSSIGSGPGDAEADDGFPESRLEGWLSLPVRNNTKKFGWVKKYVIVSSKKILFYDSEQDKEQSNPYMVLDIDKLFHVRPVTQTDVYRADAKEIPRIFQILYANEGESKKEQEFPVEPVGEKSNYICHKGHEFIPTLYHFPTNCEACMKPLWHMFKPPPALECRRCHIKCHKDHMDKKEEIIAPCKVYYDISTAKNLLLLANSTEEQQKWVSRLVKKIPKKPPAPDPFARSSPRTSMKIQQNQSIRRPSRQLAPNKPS

Structure (SMILES)	Arg-1 expression in brain [1]	iNOS expression in brain [1]	expression of Nogo protein in brain [2]	expression of BDNF protein in brain [2]	expression of GDNF protein in brain [2]	expression of NT-3 protein in brain [2]	vasodilation on the foot of mice (C57BL/6 mice)	mean clinical score (EAE in C57BL/6 mice [3])	maximum clinical score (EAE in C57BL/6 mice [3])	body weight loss vs EAE mice (EAE in C57BL/6 mice [3])	viability of primary neurons (MTT) (primary neurons [4]; 75 μg/ml, vs control)	viability of primary neurons (MTT) (primary neurons [4]; 0.6–15 μg/ml)	death of primary neurons (LDH release) (primary neurons [5]; 0.6–15 μg/ml)	viability of BV-2 microglia (MTT) (BV-2 microglia [6]; 75 μg/ml, vs control)	viability of BV-2 microglia (MTT) (BV-2 microglia [6]; 0.6–15 μg/ml)	BV-2 microglia cell death / morphology (BV-2 microglia [8])	death of BV-2 microglia (LDH release) (BV-2 microglia [8]; 0.6–15 μg/ml)	breakage of dendritic branches on BV-2 microglia (BV-2 microglia [9])	dendritic length of BV-2 microglia (mean) (BV-2 microglia [9]) [μm]	neurite length of primary neurons (mean) (primary neurons [10]) [μm]	other results
O=S(=O)(c1cccc2cnccc12)N1CCC[C@H]1CCl [FSD-C10]	elevated	inhibited	slightly, although not significantly, declined	significantly enhanced	significantly enhanced	significantly enhanced	relatively weak vasodilator effect	0.28±0.23	0.50	less body weight loss	did not lead to significant decrease	did not influence	did not influence	did not lead to significant decrease	did not influence	good cell morphology	did not influence	did not cause significant breakage	12.5	10.5	death of primary neurons (LDH release) (primary neurons [5]; 75 μg/ml, vs control): did not lead to significant decrease; IC50 (ROCK I): 1140 nM; clinical severity of EAE (EAE in C57BL/6 mice [7]): ameliorated; IC50 (ROCK II): 711 nM; death of BV-2 microglia (LDH release) (BV-2 microglia [8]; 75 μg/ml, vs control): did not lead to significant decrease; BV-2 cell death at higher doses with the extension of time (BV-2 microglia [8]; ≥200 μg/ml, result not shown): caused cell death
Cl.O=S(=O)(c1cccc2cnccc12)N1CCCNCC1 [Fasudil, hexahydro-1-(5-isoquinolinyl-sulfonyl)-1H-1,4-diazepine monohydrochloride, reference compound]	elevated	inhibited	slightly, although not significantly, declined	significantly enhanced	significantly enhanced	significantly enhanced	obvious vasodilation	0.04±0.07	0.19	less body weight loss	significant decrease	did not influence	did not influence	significant decrease	did not influence	obvious cell death	did not influence	caused significant breakage	12.5	6.6	Mortality (%) (mice; 800 μg/mouse i.p.): 0%; Mortality (%) (mice; 1600 μg/mouse i.p.): 33%; Mortality (%) (mice; 2000 μg/mouse i.p.): 67%
